Converted amounts (≈) assume the structure as drawn. Read-outs that look alike come from different tables or passages of the source.
Columns and labels:
[1] = system: M. tuberculosis H37Rv; test: Mouse model of acute M. tuberculosis infection; details: for Lungs CFU log10, mean difference from drug-free control / Spleen CFU log10, mean difference from drug-free control: Day 42, IPA 100 mg/kg, oral gavage 6 days/week, 4 weeks
[2] = system: M. tuberculosis H37Rv; test: Bactericidal activity, CFU enumeration on agar after treatment; assay type: cell-based, Mycobacterium tuberculosis; details: M. tuberculosis, 1 mM, log CFU/ml reduction from initial inoculum; for log reduction at 1000 µM: Mycobacterium tuberculosis, H37RV, read-out: Bactericidal activity (log reduction) at 1 mM
[3] = system: M. abscessus; test: Spectrum of activity: M. abscessus growth inhibition; assay type: cell-based; details: 3 days, read-out: Antibacterial activity (MIC50) M. abscessus
[4] = system: M. tuberculosis H37Rv; test: M. tuberculosis growth inhibition dose-response (MIC50), turbidity readout; assay type: cell-based, Mycobacterium tuberculosis; details: H37Rv, 10 days, read-out: Antibacterial activity (MIC50) M. tuberculosis
[5] = system: HepG2 cells; test: Cytotoxicity assay, HepG2 cells (CellTiter 96 AQueous One); details: read-out: Cytotoxicity HepG2 cells CC50; 24 h
[6] = system: THP-1 cells; test: Cytotoxicity assay, THP-1 cells (CellTiter 96 AQueous One); details: read-out: Cytotoxicity THP-1 cells CC50; 24 h
[7] = system: M. tuberculosis; test: Growth inhibition in acidic medium (pH 6.2); assay type: cell-based, Mycobacterium tuberculosis; details: pH 6.2, read-out: Activity (MIC50) in acidic medium (pH 6.2)
[8] = system: M. bovis BCG Pasteur; test: microbe, parasite or virus in culture; assay type: cell-based; details: for MIC50: Mycobacterium tuberculosis variant bovis BCG, BCG, read-out: Antibacterial activity (MIC50) M. bovis BCG
[9] = system: Escherichia coli; test: Spectrum of activity: E. coli growth inhibition; assay type: cell-based; details: LB medium, overnight, read-out: Antibacterial activity (MIC50) E. coli
[10] = system: Staphylococcus aureus; test: Spectrum of activity: S. aureus growth inhibition; assay type: cell-based; details: LB medium, overnight, read-out: Antibacterial activity (MIC50) S. aureus
[11] = system: human red blood cells (RBCs); test: Red blood cell lysis assay; details: hemolysis
[12] = system: M. smegmatis; test: Spectrum of activity: M. smegmatis growth inhibition; assay type: cell-based; details: 1 day, read-out: Antibacterial activity (MIC50) M. smegmatis
[13] = system: M. avium; test: Spectrum of activity: M. avium growth inhibition; assay type: cell-based; details: 4 days, read-out: Antibacterial activity (MIC50) M. avium
[14] = design: method as in PMID 24563545; details: cited from earlier work
[15] = Cytotoxicity assay, HepG2 cells (CellTiter 96 AQueous One); details: human, HepG2 cells
[16] = Cytotoxicity assay, THP-1 cells (CellTiter 96 AQueous One); details: human
[17] = Pharmacokinetic study in uninfected CD-1 mice; details: for AUC(0-t) / Cmax: Ave +/- SD, n=3
[18] = Endogenous plasma levels of IPA in naive mice
[19] = system: mice; details: 100 mg/kg oral on three consecutive days, monitored 7 days
[20] = Mycobacteroides abscessus, 72 h
[21] = Mycobacterium tuberculosis, 240 h
[22] = Mycolicibacterium smegmatis, 24 h

NNC(=O)c1ccncc1 [INH, isoniazid, reference compound]
Lungs CFU log10, mean difference from drug-free control ([1]; INH 25 mg/kg): -3.82 log10 CFU | Spleen CFU log10, mean difference from drug-free control ([1]; INH 25 mg/kg): -5.49 log10 CFU | effect on bacterial load of spleen ([1]; INH 25 mg/kg, 4 weeks of monotherapy): sterilized the spleen

NC(=S)COc1cccc(Cl)c1 [Fragment F13, 2-(3-Chlorophenoxy) ethanethioamide]
Bactericidal activity (log reduction) at 1 mM [2]: 0.90 log reduction | MIC50 [3]: 289 µM (≈ 58.3 µg/mL) | MIC50 [4]: 211 µM (≈ 42.6 µg/mL) | CC50 [5]: 467 µM | CC50 [6]: 656 µM | MIC50 [7]: 75 µM (≈ 15.1 µg/mL) | Antibacterial activity (MIC50) M. bovis BCG [8]: >500 µM | MIC50 [9]: >500 µM | MIC50 [10]: >500 µM | RBCs HC50 [11]: 904 µM | MIC50 [12]: 409 µM (≈ 82.5 µg/mL) | MIC50 [13]: 387 µM (≈ 78 µg/mL)

O=C(O)CCc1c[nH]c2ccccc12 [Fragment F1]
logarithm of partition coefficient between n-octanol and water [14]: 2.15 | log reduction at 1000 µM [2]: 1.76 | MIC50 [3, 20]: > 500 µM | MIC50 [4, 21]: 68 µM (≈ 12.9 µg/mL) | CC50 at 24 h [15]: > 1000 µM | CC50 at 24 h [16]: > 1000 µM | MIC50 ([7]; Mycobacterium tuberculosis): 62 µM (≈ 11.7 µg/mL) | MIC50 [8]: 98 µM (≈ 18.5 µg/mL) | time plasma levels above the MIC50 ([17]; 100 mg/kg oral): more than 50 % of the dosing interval | Vd ([17]; CD-1, mouse, plasma, iv, 5 mg/kg): 0.25 L/kg | AUC(0-t) ([17]; CD-1, mouse, plasma, iv, 5 mg/kg, AUC[0-8], Intravenous 5 mg/kg): 72 ± 3 µg·h/mL | AUC(0-t) ([17]; CD-1, mouse, plasma, po, 100 mg/kg, AUC[0-8], Oral 100 mg/kg in CMC (suspension)): 315 ± 88 µg·h/mL | AUC(0-t) ([17]; CD-1, mouse, plasma, po, 100 mg/kg, AUC[0-8], Oral 100 mg/kg in PEG (solution)): 312 ± 59 µg·h/mL | AUC(0-t) ([17]; CD-1, mouse, plasma, po, 100 mg/kg, AUC[0-24], Oral 100 mg/kg in CMC (suspension)): 442 ± 271 µg·h/mL | AUC(0-t) ([17]; CD-1, mouse, plasma, po, 100 mg/kg, AUC[0-24], Oral 100 mg/kg in PEG (solution)): 471 ± 129 µg·h/mL | Cmax ([17]; CD-1, mouse, plasma, po, 100 mg/kg, Oral 100 mg/kg in CMC (suspension)): 67 ± 28 µg/mL | Cmax ([17]; CD-1, mouse, plasma, po, 100 mg/kg, Oral 100 mg/kg in PEG (solution)): 118 ± 10 µg/mL | bioavailability ([17]; CD-1, mouse, plasma, po, 100 mg/kg, F (oral bioavailability), Oral 100 mg/kg in CMC (suspension)): 30.8% | bioavailability ([17]; CD-1, mouse, plasma, po, 100 mg/kg, F (oral bioavailability), Oral 100 mg/kg in PEG (solution)): 32.9% | bioavailability ([17]; CD-1, mouse, plasma, po, 100 mg/kg, oral bioavailability, 100 mg/kg oral): 30 to 33% | MIC50 ([9]; Escherichia coli): > 500 µM | reduction of bacterial load in the spleen versus untreated mice ([1]; 100 mg/kg oral, 6 days/week for 4 weeks): 7 fold | adverse events or abnormal behavior over the course of drug treatment ([1]; 100 mg/kg, six consecutive days per week for 4 weeks, infected mice): None of the animals showed signs of adverse events or abnormal behavior | Lungs CFU log10, mean difference from drug-free control ([1]; INH 25 mg/kg): -0.28 log10 CFU | Spleen CFU log10, mean difference from drug-free control ([1]; INH 25 mg/kg): -0.82 log10 CFU | Endogenous plasma level, Average ([18]; time 0.25 h): 589 ng/mL | Endogenous plasma level, Average ([18]; time 1 h): 514 ng/mL | Endogenous plasma level, Average ([18]; time 3 h): 455 ng/mL | Endogenous plasma level, Average ([18]; time 5 h): 404 ng/mL | Endogenous plasma level, Average ([18]; time 8 h): 629 ng/mL | MIC50 ([10]; Staphylococcus aureus): > 500 µM | RBCs HC50 [11]: >1,000 μM | MIC50 [12, 22]: 477 µM (≈ 90.3 µg/mL) | MIC50 ([13]; Mycobacterium avium, 96 h): 119 µM (≈ 22.5 µg/mL) | Acute toxicity: behavior and gross pathology of major organs [19]: None of the mice showed abnormal behavior

NCc1cccc(N2CCCCC2)n1 [Fragment F17, [6-(Piperidin-1-yl)pyridin-2-yl]methanamine]
log reduction at 1000 µM [2]: 3.07 | MIC50 [3, 20]: > 500 µM | MIC50 [4, 21]: 250 µM (≈ 47.8 µg/mL) | CC50 at 24 h [15]: 455 µM | CC50 at 24 h [16]: 489 µM | MIC50 ([7]; Mycobacterium tuberculosis): 245 µM (≈ 46.9 µg/mL) | MIC50 [8]: 345 µM (≈ 66 µg/mL) | MIC50 ([9]; Escherichia coli): > 500 µM | MIC50 ([10]; Staphylococcus aureus): 104 µM (≈ 19.9 µg/mL) | RBCs HC50 [11]: >1,000 μM | MIC50 [12, 22]: > 500 µM | MIC50 ([13]; Mycobacterium avium, 96 h): 271 µM (≈ 51.8 µg/mL)

Nc1ccc2oc3c(c2c1)CCCC3 [Fragment F5, 6,7,8,9-Tetrahydrodibenzo [b,d]furan-2-amine]
log reduction at 1000 µM [2]: 1.11 | MIC50 [3, 20]: > 500 µM | MIC50 [4, 21]: 245 µM (≈ 45.9 µg/mL) | CC50 at 24 h [15]: > 1000 µM | CC50 at 24 h [16]: > 1000 µM | MIC50 ([7]; Mycobacterium tuberculosis): 62 µM (≈ 11.6 µg/mL) | MIC50 [8]: 488 µM (≈ 91.4 µg/mL) | MIC50 ([9]; Escherichia coli): > 500 µM | MIC50 ([10]; Staphylococcus aureus): > 500 µM | RBCs HC50 [11]: >1,000 μM | MIC50 [12, 22]: > 500 µM | MIC50 ([13]; Mycobacterium avium, 96 h): > 500 µM

Reference: paper PMC5826148, “Whole-Cell Screen of Fragment Library Identifies Gut Microbiota Metabolite Indole Propionic Acid as Antitubercular” (Antimicrobial Agents and Chemotherapy, 2018)
